Assay results from patent US20140371165A1, “Identification of NSC23925 Isomers to Reverse Multidrug Resistance in Human Cancers” (priority 2012, published 2014).
Structures can show the parent of a compound that is named as a salt.

Molecular target: T1, Pgp (Homo sapiens, UniProt P08183)
T1 construct: multidrug resistant cells expressing high levels of Pgp rapidly extrude non-fluorescent calcein AM from the plasma membrane; endogenous in cells; host or cells: MCF-7adr and SW480TR drug-resistant cells
Assay: Calcein AM drug efflux fluorescence microscopy assay (Vybrant multi-drug resistance kit)
Assay type: cell-based
From the text: The Vybrant™ multi-drug resistance assay kit (Invitrogen/Molecular Probes) was used to measure drug efflux properties of different resistant cell lines. This assay utilizes the fluorogenic dye calcein acetoxymethyl ester (calcein AM) as a substrate for efflux activity of Pgp or other membrane pump ABC proteins. Calcein AM is taken up by cells and hydrolyzed by cytoplasmic esterases to fluorescent calcein. Calcein […] is well retained in the cytosol. However, multidrug resistant cells expressing high levels of Pgp rapidly extrude non-fluorescent calcein AM from the plasma membrane, reducing accumulation of fluorescent calcein in the cytosol. Studies were carried out as described. In brief, drug resistant cells (5,000 cells per well) were cultured in 96-well plate for 24 hours. Triplicated cultures of cells were treated with different concentrations of NSC23925b for one hour and then incubated in calcein AM in 100 μl total volume. After 30 minutes, images were acquired by Nikon Eclipse Ti-U fluorescence microscope (Nikon Corp.) equipped with a SPOT RT digital camera (Diagnostic Instruments, Inc., Sterling Heights, Mich.).
The effect of NSC23925b on the uptake and efflux of calcein AM in MCF-7adr and SW480TR was determined. […] The calcein-AM assay was optimized and performed using the Vybrant Multidrug Resistance kit. Cells were seeded at 50,000 cells/well (100 μl of culture medium) in 96-well plate and incubated for 24 hours. MCF-7adr cells in triplicate were treated with NSC23925b for one hour and then incubated in calcein AM for 30 minutes. The cell fluorescence images were acquired by a fluorescence microscope. NSC23925b has a prominent effect on the accumulation of calcein AM in these cells starting at a concentration as low as 1 nM.

T1 sequence (P08183 whole entry): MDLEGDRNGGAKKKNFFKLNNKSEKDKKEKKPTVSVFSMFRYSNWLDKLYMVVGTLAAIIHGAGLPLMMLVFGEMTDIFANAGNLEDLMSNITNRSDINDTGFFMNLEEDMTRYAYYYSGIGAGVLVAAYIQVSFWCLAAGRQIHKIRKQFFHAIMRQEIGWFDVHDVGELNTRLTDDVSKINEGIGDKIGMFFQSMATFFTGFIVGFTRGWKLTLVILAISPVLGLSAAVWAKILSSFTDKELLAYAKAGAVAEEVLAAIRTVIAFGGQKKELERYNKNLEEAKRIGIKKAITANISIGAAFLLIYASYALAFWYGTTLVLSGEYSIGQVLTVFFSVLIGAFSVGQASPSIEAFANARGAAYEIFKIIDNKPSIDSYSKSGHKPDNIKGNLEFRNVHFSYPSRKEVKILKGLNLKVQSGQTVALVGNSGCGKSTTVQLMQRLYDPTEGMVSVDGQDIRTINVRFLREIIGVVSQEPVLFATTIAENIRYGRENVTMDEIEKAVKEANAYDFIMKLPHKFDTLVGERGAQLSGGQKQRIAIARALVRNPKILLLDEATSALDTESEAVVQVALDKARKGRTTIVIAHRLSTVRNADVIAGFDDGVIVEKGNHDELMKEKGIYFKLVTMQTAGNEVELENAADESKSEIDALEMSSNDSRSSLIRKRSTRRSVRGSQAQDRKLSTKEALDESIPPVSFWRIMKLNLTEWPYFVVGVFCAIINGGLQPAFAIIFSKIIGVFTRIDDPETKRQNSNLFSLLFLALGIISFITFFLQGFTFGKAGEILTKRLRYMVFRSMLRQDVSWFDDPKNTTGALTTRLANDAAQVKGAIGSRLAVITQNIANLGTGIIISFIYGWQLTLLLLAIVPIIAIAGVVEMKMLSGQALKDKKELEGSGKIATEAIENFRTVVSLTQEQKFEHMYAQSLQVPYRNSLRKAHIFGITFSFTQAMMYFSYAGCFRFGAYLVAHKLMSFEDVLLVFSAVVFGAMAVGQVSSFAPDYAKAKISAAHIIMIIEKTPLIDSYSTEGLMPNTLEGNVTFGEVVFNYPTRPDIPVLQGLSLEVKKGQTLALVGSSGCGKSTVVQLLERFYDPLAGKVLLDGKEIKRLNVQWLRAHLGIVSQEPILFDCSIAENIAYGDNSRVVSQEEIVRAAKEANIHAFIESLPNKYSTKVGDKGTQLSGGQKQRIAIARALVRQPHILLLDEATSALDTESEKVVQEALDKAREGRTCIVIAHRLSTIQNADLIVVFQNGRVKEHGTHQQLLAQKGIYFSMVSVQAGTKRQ

Structure (SMILES): COc1ccc(-c2cc([C@H](O)[C@H]3CCCCN3)c3ccccc3n2)cc1 [NSC23925b, (2-(4-methoxyphenyl)quinolin-4-yl)(piperidin-2-yl)methanol hydrochloride]
- lowest concentration with prominent effect on accumulation of calcein AM (MCF-7adr and SW480TR cells): 1 nM
- intracellular accumulation of calcein AM (MCF-7adr and SW480TR, 1 h pretreatment, calcein AM 30 minutes): increase intracellular accumulation of calcein AM in these cell lines in a dose-dependent manner
- near maximal reversal of accumulation deficit (calcein AM, MCF-7adr and SW480TR cells): 500 nM
- EC50 (calcein AM, MCF-7adr and SW480TR cells, read-out: Half-maximal reversal of accumulation deficit): 100 nM
